Entries after “also recorded” stand apart in the source; their conditions may differ.
What was measured:
photoreceptor cells = experiment: Light damage model in vivo, TUNEL staining of ONL; design: species or system albino balb/c mice
Protocol: (§1) Apoptosis detection by Terminal deoxynucleotidyl transferase-mediated biotinylated UTP nick end labeling (TUNEL): Retinal explants were fixed in 10% neutral buffered formalin overnight at 4° C., followed by cryoprotection in 25% sucrose overnight at 4° C. Frozen sections (7 μm) were incubated with terminal deoxynucleotidyl transferase (MSC, Dublin, Republic of Ireland) and fluorescein-12-dUTP (Roche, Lewes, UK) according to manufacturers' instructions at 37° C. for 1 h. Sections were mounted and viewed under a fluorescence microscope (Leica DM LB2; Leica, Nussloch, Germany) using an FITC filter.
Light damage model: Balb/c mice were dark adapted for 18 h prior to exposure to constant light. Mice were injected intraperitoneally with 100 mg/kg of norgestrel 1 hour prior to light damage. Immediately prior to light exposure their pupils were dilated with 0.5% cyclopentolate under red light. Retinal light damage was induced by exposure to 2 h of cool white fluorescent light at an illumination of 5000 lux. Following exposure to constant light, animals were placed in the dark for 24 h then killed immediately by cervical dislocation.
TUNEL staining was performed as described above.

[1] = system: photoreceptor cells in the outer nuclear layer (ONL); experiment: Retinal explant culture, SNP induced apoptosis detected by TUNEL; type: cell-based, C57BL/6 mice
Protocol: Retinal explant culture: Eyes from postnatal day 10, C57BL/6 mice were removed and cleaned with 70% ethanol. The anterior segment, vitreous body, and sclera were removed and the retina mounted on Millicell nitrocellulose inserts (Millipore, Billerica, Mass.) photoreceptor-side down. Explants were cultured without retinal pigment epithelium (RPE) in 1.2 ml of R16 specialised media (from Dr. P. A. Ekstrom, Wallenberg Retina Centre, Lund University, Lund, Sweden) without additional serum. Treated explants were cultured in medium containing 300 μM of the nitric oxide donor SNP (sodium nitroprusside) for 24 h. Pre-treatment with norgestrel was for 1 hour.
as §1

[2] = system: photoreceptor cells in the outer nuclear layer (ONL); experiment: rd10 model of chronic retinal degeneration; type: in vivo, rd10 mouse
Protocol: Peanut agglutinin (PNA) staining: Eyes were fixed in 10% neutral buffered formalin overnight at 4° C., followed by cryoprotection in 25% sucrose overnight at 4° C. Frozen sections (7 μm) were blocked with 0.1% bovine serum albumin (BSA) in 0.1% tween/PBS for 30 minutes at room temperature. Sections were incubated with rhodamine conjugated PNA (Invitrogen, Dun Laoghaire, Ireland) for 20 minutes at room temperature as per manufacturers' instructions. Sections were mounted and viewed under a fluorescence microscope (Leica DM LB2; Leica, Nussloch, Germany) using a TRITC filter. Immunofluorescence: Eyes were fixed in 10% neutral buffered formalin overnight at 4° C., followed by cryoprotection in 25% sucrose overnight at 4° C. Frozen sections (7 μm) were blocked with 0.1% bovine serum albumin (BSA) in 0.1% tween/PBS for 1 hour at room temperature. Sections were incubated with anti-rhodopsin antibody (LAB VISION Corporation, Fremont, Calif., USA) overnight at 4° C. Sections were washed and incubated with FITC conjugated secondary mouse antibody (Dako, Glostrup, Denmark) for 1 hour at room temperature. Following further washes, sections were mounted and viewed under a fluorescence microscope (Leica DM LB2; Leica, Nussloch, Germany) using a FITC filter. […] It is a better model of the slow progression of typical human autosomal recessive RP than the acute light model as photoreceptor cells are lost over a period of weeks rather than days. Loss of photoreceptors in the rd10 mouse begins at approximately 2 weeks of age, with the peak of photoreceptor death occurring at postnatal day (P) 25.

[3] = compared to uninjected or vehicle injected controls

SMILES: C#CC1(O)CC[C@H]2[C@@H]3CCC4=CC(=O)CC[C@@H]4[C@H]3CC[C@@]21CC (mixture of isomers) [norgestrel]
- protection of photoreceptors from light induced retinal damage / apoptosis (photoreceptor cells; 100 mg/kg IP, 1 hour before 2 h light damage): protects from the retinal damage observed; also recorded: Photoreceptors are protected
- duration of protection after a single injection (photoreceptor cells; 100 mg/kg, single injection, post light damage): 72 h
- protection from light induced cell death (TUNEL positive cells) (photoreceptor cells; central retina, 24 hours, 100 mg/kg): approx 70%
- protection of photoreceptors from SNP induced apoptosis (TUNEL) ([1]; ex vivo retinal explants, 300 μM SNP for 24 h, 1 hour norgestrel pre-treatment, increasing concentrations): protected from SNP induced apoptosis; also recorded: protects photoreceptive cells from SNP induced cell death
- toxicity to retinal cells ([1]; retinal explants, norgestrel alone at the highest concentration used): not toxic to retinal cells
- protection of layers of photoreceptor nuclei, central retina ([2]; 100 mg/kg IP every second day P18-P30, central retina): 1-2 layers
- protection of layers of photoreceptor nuclei, peripheral retina ([2]; 100 mg/kg IP every second day P18-P30, peripheral retina): 4-5 layers
- protection of layers of photoreceptor nuclei in the ONL, central retina ([2]; 100 mg/kg injected daily, P25, central retina): 3-4 layers
- protection of layers in the ONL, peripheral retina ([2]; 100 mg/kg injected daily, P25, peripheral retina): 3-4 layers
- degeneration of central retina, photoreceptor nuclei remaining at P25 and P30 versus vehicle ([2]; central retina, P25 and P30): degenerates more slowly
- PNA staining (cone photoreceptors) in the ONL [2, 3]: more cone cells are found
- rhodopsin immunofluorescent staining (rod photoreceptors) in the ONL [2, 3]: more rhodopsin positive cells remain
- degeneration of peripheral retina between P25 and P30 versus vehicle ([2]; peripheral retina, P25 to P30): degeneration of the peripheral retina virtually ceases
- protection with injection every second day versus daily ([2]; rd10, P25, every second day compared with daily): equally as protected

— patent US20110144077A1, “TREATMENT OF RETINAL DEGENERATION” (priority 2008, published 2011)
